Measurements taken from US6407235B1, “Prodrug acid esters of [2-(4-benzyl-3-hydroxy-piperidin-1-yl)-ethansulfonyl]phenol” (Hoffmann-La Roche Inc., priority 2001, dated 2002).
Values after ≈ are worked out from the molar mass of the structure shown. Read-outs that look alike come from different tables or passages of the source.

Legend:
Solubility = assay type: physicochemical; conditions: for Solubility at pH 7.4 relative to the parent compound, suggested/assumed from pH 4.0 data: pH 7.4, not measured directly
NMDA receptor subtype = conditions: known from WO 00/75109; cited from earlier work
Stability in solution = assay type: physicochemical; conditions: pH 7.4, 24 hours
[1] = pH 7, aqueous buffer, read-out: Solubility (μg/ml at pH 7)
[2] = pH 4, aqueous buffer, read-out: Solubility (μg/ml at pH 4)

solubility (Solubility; [2]) [µg/mL]	Stability at pH 7.4 over 24 hours (Stability in solution)	Solubility at pH 7.4 relative to the parent compound, suggested/assumed from pH 4.0 data (Solubility)	SMILES	solubility (Solubility; aqueous buffer, pH 4.8 (printed in the cell of the pH 4 column), read-out: Solubility (μg/ml) at pH 4.8) [µg/mL]	solubility (Solubility; [1]) [µg/mL]	Water solubility at physiological pH (Solubility; physiological pH)	NMDA receptor subtype specific blocker (NMDA receptor subtype)
			O=S(=O)(CCN1CC[C@H](Cc2ccccc2)[C@H](O)C1)c1ccc(O)cc1 [Compound of formula II, (3S,4S)-4-[2-(4-benzyl-3-hydroxy-piperidin-1-yl)-ethanesulfonyl]-phenol, reference compound]	7750	47	limited water solubility	good NMDA receptor subtype specific blocker
1800 (≈ 3.78 mM)			O=C(O)CCC(=O)Oc1ccc(S(=O)(=O)CCN2CC[C@H](Cc3ccccc3)[C@H](O)C2)cc1 [Example 1, Succinic Acid Mono-{(3S,4S)-4-[2-(4-benzyl-3-hydroxy-piperidin-1-yl)-ethanesulfonyl]-phenyl}ester]		7690 (≈ 16.2 mM)		
8500 (≈ 14.7 mM)			O=C(Oc1ccc(S(=O)(=O)CCN2CC[C@H](Cc3ccccc3)[C@H](O)C2)cc1)c1cccc(CN2CCOCC2)c1 [Example 6, 3-Morpholin-4-ylmethyl-benzoic Acid (3S,4S)-4-[2-(4-benzyl-3-hydroxy-piperidin-1-yl)-ethanesulfonyl]-phenyl Ester]		89 (≈ 0.154 mM)		
6710 (≈ 13.2 mM)	unstable	higher solubility can be assumed	NCc1ccc(C(=O)Oc2ccc(S(=O)(=O)CCN3CC[C@H](Cc4ccccc4)[C@H](O)C3)cc2)cc1 [Example 7, 4-Aminomethyl-benzoic Acid (3S,4S)-4-[2-(4-benzyl-3-hydroxy-piperidin-1-yl)-ethanesulfonyl]-phenyl Ester]				
86600 (≈ 166 mM)	unstable	higher solubility	CNCc1cccc(C(=O)Oc2ccc(S(=O)(=O)CCN3CC[C@H](Cc4ccccc4)[C@H](O)C3)cc2)c1 [Example 9, 3-Methylaminomethyl-benzoic Acid (3S,4S)-4-[2-(4-benzyl-3-hydroxy-piperidin-1-yl)-ethanesulfonyl]-phenyl Ester]				
26100 (≈ 49.9 mM)	unstable	higher solubility	CNCc1ccc(C(=O)Oc2ccc(S(=O)(=O)CCN3CC[C@H](Cc4ccccc4)[C@H](O)C3)cc2)cc1 [Example 10, 4-Methylaminomethyl-benzoic Acid (3S,4S)-4-[2-(4-benzyl-3-hydroxy-piperidin-1-yl)-ethanesulfonyl]-phenyl Ester]				

SMILES	solubility (Solubility; [2]) [µg/mL]	Stability at pH 7.4 over 24 hours (Stability in solution)	Solubility at pH 7.4 relative to the parent compound, suggested/assumed from pH 4.0 data (Solubility)	solubility (Solubility; aqueous buffer, pH 4.8 (printed in the cell of the pH 4 column), read-out: Solubility (μg/ml) at pH 4.8) [µg/mL]	solubility (Solubility; [1]) [µg/mL]	Water solubility at physiological pH (Solubility; physiological pH)	NMDA receptor subtype specific blocker (NMDA receptor subtype)
O=P(O)(O)Oc1ccc(S(=O)(=O)CCN2CC[C@H](Cc3ccccc3)[C@H](O)C2)cc1 [Example 2, Phosphoric Acid Mono-{(3S,4S)-4-[2-(4-benzyl-3-hydroxy-piperidin-1-yl)-ethanesulfonyl]-phenyl}ester]	594 (≈ 1.3 mM)				> 37600		
